From patent US10501752B2, “Herbicide tolerant cotton event pDAB4468.19.10.3” (Dow AgroSciences LLC, priority 2012, dated 2019)

Legend:
Format in all cases: in vivo, Gossypium hirsutum
[1] = tested on: non-transformed Coker 310 variety of cotton (WT); test: Butanoic acids of triclopyr and fluroxypyr greenhouse trials, negative control plants (% injury); conditions: 2-3 leaf stage
Experimental: (§1) Herbicide tolerance was assessed following a single post-emergence application of the two molecules. Seed from cotton event pDAB4468.19.10.3 were heat treated in a water bath at 82.5° C. for 1 minute and then planted in metro mix 360 media and grown in a greenhouse. The temperatures in the greenhouse averaged 27° C. and the photoperiod was set at 16 hours of light and eight hours of dark, with maximum light intensity. Plants were allowed to grow until the 2-3 leaf stage of development and a non-randomized study was conducted with four replications and three treatments for each herbicide. […] In addition, a crop oil concentrate was added to a final concentration of 1.25%. Plants were sprayed in a track sprayer calibrated to deliver 187 L/ha of the formulated technical material. A non-transformed Coker 310 variety of cotton was used as a negative control.

[2] = tested on: cotton event pDAB4468.19.10.3 (aad-12); test: Tolerance to butanoic acids of triclopyr and fluroxypyr in greenhouse trials (% injury); conditions: 2-3 leaf stage
Experimental: as §1

[3] = tested on: cotton event pDAB4468.19.10.3; test: Tolerance to triclopyr and fluroxypyr in greenhouse trials (percent visual injury); conditions: for % Injury: cotton event, 3 leaf stage, greenhouse
Experimental: (§2) The tolerance of cotton event pDAB4468.19.10.3 to post-emergence applications of the pyridyloxyacetic acid herbicides, triclopyr and fluroxypyr, was studied in greenhouse trials. Herbicide tolerance was assessed following a single post-emergence application of triclopyr or fluroxypyr. Seed from cotton event pDAB4468.19.10.3 were heat treated in a water bath at 82.5° C. for 1 minute and then planted in metro mix 360 media and grown in a greenhouse. The temperatures in the greenhouse averaged 27° C. and the photoperiod was set at 16 hours of light and eight hours of dark, with maximum light intensity. Plants were allowed to grow until the 3 leaf stage of development and a non-randomized study was conducted with three replications and three treatments for each herbicide. Plants were sprayed in a track sprayer calibrated to deliver 187 L/ha of the commercial formulations of triclopyr (Garlon 4TM, Dow AgroSciences, Indianapolis, Ind.) and fluroxypyr ([…], Dow AgroSciences, Indianapolis, Ind.). A non-transformed Coker 310 variety of cotton was used as a negative control.

[4] = tested on: non-transformed Coker 310 variety of cotton; test: Triclopyr and fluroxypyr greenhouse trials, negative control plants (percent visual injury); conditions: 3 leaf stage
Experimental: as §2

Question: Which “% Injury” value ([1]; 140 g ai/ha, 1 DAA) does the source give for `Nc1c(Cl)c(F)nc(OCC(=O)O)c1Cl` [Fluroxypyr, fluroxypyr] here?
Answer: The value was 24.3a %.

Question: What about the “% Injury” value ([1]; 140 g ai/ha, 3 DAA) of the same compound?
Answer: Its value is 32.5bc %.

Question: And the “% Injury” value ([1]; 140 g ai/ha, 6 DAA)?
Answer: Its value is 38.8a %.

Question: What about the “% Injury” value ([1]; 140 g ai/ha, 6 HAA) of the same compound?
Answer: Its value is 23.8a %.

Question: What about the “% Injury” value ([1]; 140 g ai/ha, 14 DAA) of the same compound?
Answer: The value was 60ab %.

Question: And the “% Injury” value ([1]; 280 g ai/ha, 1 DAA)?
Answer: The value was 25a %.

Question: And the “% Injury” value ([1]; 280 g ai/ha, 3 DAA)?
Answer: Its value is 37.5ab %.

Question: And the “% Injury” value ([1]; 280 g ai/ha, 6 DAA)?
Answer: Its value is 38.8a %.

Question: And the “% Injury” value ([1]; 280 g ai/ha, 6 HAA)?
Answer: Its value is 22.5ab %.

Question: And the “% Injury” value ([1]; 280 g ai/ha, 14 DAA)?
Answer: Its value is 65ab %.

Question: What about the “% Injury” value ([1]; 560 g ai/ha, 1 DAA) of the same compound?
Answer: Its value is 23.5a %.

Question: And the “% Injury” value ([1]; 560 g ai/ha, 3 DAA)?
Answer: Its value is 38.8a %.

Question: What about the “% Injury” value ([1]; 560 g ai/ha, 6 DAA) of the same compound?
Answer: Its value is 41.3a %.

Question: And the “% Injury” value ([1]; 560 g ai/ha, 6 HAA)?
Answer: The value was 22.5ab %.

Question: What about the “% Injury” value ([1]; 560 g ai/ha, 14 DAA) of the same compound?
Answer: The value was 67.5a %.

Question: What about the “% Injury” value ([2]; 140 g ai/ha, 1 DAA) of the same compound?
Answer: Its value is 21.5a %.

Question: What about the “% Injury” value ([2]; 140 g ai/ha, 3 DAA) of the same compound?
Answer: The value was 8.8c %.

Question: And the “% Injury” value ([2]; 140 g ai/ha, 6 DAA)?
Answer: The value was 7.8b %.

Question: What about the “% Injury” value ([2]; 140 g ai/ha, 6 HAA) of the same compound?
Answer: The value was 19a %.

Question: And the “% Injury” value ([2]; 140 g ai/ha, 14 DAA)?
Answer: Its value is 21.3ab %.

Question: What about the “% Injury” value ([2]; 280 g ai/ha, 1 DAA) of the same compound?
Answer: Its value is 19.8a %.

Question: And the “% Injury” value ([2]; 280 g ai/ha, 3 DAA)?
Answer: The value was 15.3b %.

Question: And the “% Injury” value ([2]; 280 g ai/ha, 6 DAA)?
Answer: The value was 11.5a %.

Question: What about the “% Injury” value ([2]; 280 g ai/ha, 6 HAA) of the same compound?
Answer: The value was 14a %.

Question: What about the “% Injury” value ([2]; 280 g ai/ha, 14 DAA) of the same compound?
Answer: Its value is 17.5b %.

Question: What about the “% Injury” value ([2]; 560 g ai/ha, 1 DAA) of the same compound?
Answer: The value was 21.5a %.

Question: What about the “% Injury” value ([2]; 560 g ai/ha, 3 DAA) of the same compound?
Answer: The value was 21.3a %.

Question: And the “% Injury” value ([2]; 560 g ai/ha, 6 DAA)?
Answer: The value was 14.3a %.

Question: And the “% Injury” value ([2]; 560 g ai/ha, 6 HAA)?
Answer: Its value is 17a %.

Question: And the “% Injury” value ([2]; 560 g ai/ha, 14 DAA)?
Answer: The value was 25a %.

Question: And the “% Injury” value ([3]; 70 g ae/ha, 3 DAA)?
Answer: Its value is 0.5 e %.

Question: What about the “% Injury” value ([3]; 70 g ae/ha, 11 DAA) of the same compound?
Answer: The value was 2.3 b %.

Question: What about the “% Injury” value ([3]; 140 g ae/ha, 3 DAA) of the same compound?
Answer: Its value is 0.5 e %.

Question: What about the “% Injury” value ([3]; 140 g ae/ha, 11 DAA) of the same compound?
Answer: The value was 2.5 b %.

Question: What about the “% Injury” value ([3]; 280 g ae/ha, 3 DAA) of the same compound?
Answer: The value was 6.5 d %.

Question: And the “% Injury” value ([3]; 280 g ae/ha, 11 DAA)?
Answer: Its value is 6.3 a %.

Question: What about the “herbicide level to which the event provides tolerance” value ([3]; by 3 DAA) of the same compound?
Answer: Its value is “up to 280 g ae/ha”.

Question: And the “% Injury” value ([4]; 70 g ae/ha, 3 DAA)?
Answer: Its value is 11.3 c %.

Question: What about the “% Injury” value ([4]; 70 g ae/ha, 11 DAA) of the same compound?
Answer: The value was 43.8 ab %.

Question: What about the “% Injury” value ([4]; 140 g ae/ha, 3 DAA) of the same compound?
Answer: The value was 27.3 b %.

Question: What about the “% Injury” value ([4]; 140 g ae/ha, 11 DAA) of the same compound?
Answer: The value was 36.3 b %.

Question: And the “% Injury” value ([4]; 280 g ae/ha, 3 DAA)?
Answer: The value was 33.3 a %.

Question: And the “% Injury” value ([4]; 280 g ae/ha, 11 DAA)?
Answer: Its value is 43.8 ab %.

Question: With `Nc1c(Cl)c(F)nc(OCCCC(=O)O)c1Cl` [Fluroxypyr-b, fluroxypyr-B] as the compound, how does the “% Injury” value ([1]; 140 g ai/ha, 1 DAA) read?
Answer: Its value is 21.8a %.

Question: And the “% Injury” value ([1]; 140 g ai/ha, 3 DAA)?
Answer: Its value is 32.5bc %.

Question: What about the “% Injury” value ([1]; 140 g ai/ha, 6 DAA) of the same compound?
Answer: Its value is 37.5a %.

Question: What about the “% Injury” value ([1]; 140 g ai/ha, 6 HAA) of the same compound?
Answer: Its value is 17.8b %.

Question: And the “% Injury” value ([1]; 140 g ai/ha, 14 DAA)?
Answer: Its value is 56.3b %.

Question: And the “% Injury” value ([1]; 280 g ai/ha, 1 DAA)?
Answer: The value was 24.3a %.

Question: What about the “% Injury” value ([1]; 280 g ai/ha, 3 DAA) of the same compound?
Answer: The value was 33.8bc %.

Question: What about the “% Injury” value ([1]; 280 g ai/ha, 6 DAA) of the same compound?
Answer: The value was 41.3a %.

Question: What about the “% Injury” value ([1]; 280 g ai/ha, 6 HAA) of the same compound?
Answer: The value was 21.3ab %.

Question: What about the “% Injury” value ([1]; 280 g ai/ha, 14 DAA) of the same compound?
Answer: The value was 62.5ab %.

Question: And the “% Injury” value ([1]; 560 g ai/ha, 1 DAA)?
Answer: Its value is 22.3a %.

Question: And the “% Injury” value ([1]; 560 g ai/ha, 3 DAA)?
Answer: The value was 31.3c %.

Question: What about the “% Injury” value ([1]; 560 g ai/ha, 6 DAA) of the same compound?
Answer: The value was 41.3a %.

Question: What about the “% Injury” value ([1]; 560 g ai/ha, 6 HAA) of the same compound?
Answer: Its value is 20ab %.

Question: And the “% Injury” value ([1]; 560 g ai/ha, 14 DAA)?
Answer: Its value is 61.3ab %.

Question: And the “% Injury” value ([2]; 140 g ai/ha, 1 DAA)?
Answer: The value was 3b %.

Question: And the “% Injury” value ([2]; 140 g ai/ha, 3 DAA)?
Answer: The value was 2d %.

Question: And the “% Injury” value ([2]; 140 g ai/ha, 6 DAA)?
Answer: The value was 2c %.

Question: And the “% Injury” value ([2]; 140 g ai/ha, 6 HAA)?
Answer: Its value is 6.5b %.

Question: And the “% Injury” value ([2]; 140 g ai/ha, 14 DAA)?
Answer: Its value is 0c %.

Question: And the “% Injury” value ([2]; 280 g ai/ha, 1 DAA)?
Answer: Its value is 2b %.

Question: What about the “% Injury” value ([2]; 280 g ai/ha, 3 DAA) of the same compound?
Answer: The value was 2.3d %.

Question: And the “% Injury” value ([2]; 280 g ai/ha, 6 DAA)?
Answer: The value was 2.8c %.

Question: What about the “% Injury” value ([2]; 280 g ai/ha, 6 HAA) of the same compound?
Answer: Its value is 7.8b %.

Question: And the “% Injury” value ([2]; 280 g ai/ha, 14 DAA)?
Answer: The value was 0c %.

Question: What about the “% Injury” value ([2]; 560 g ai/ha, 1 DAA) of the same compound?
Answer: The value was 3.5b %.

Question: What about the “% Injury” value ([2]; 560 g ai/ha, 3 DAA) of the same compound?
Answer: The value was 2d %.

Question: And the “% Injury” value ([2]; 560 g ai/ha, 6 DAA)?
Answer: The value was 2.8c %.

Question: What about the “% Injury” value ([2]; 560 g ai/ha, 6 HAA) of the same compound?
Answer: The value was 8b %.

Question: What about the “% Injury” value ([2]; 560 g ai/ha, 14 DAA) of the same compound?
Answer: Its value is 2c %.
